Drawing on patent US10479780B2, “Aminopyrazole derivatives” (Chugai Seiyaku Kabushiki Kaisha, priority 2015, dated 2019), this text covers IC50 for 20 compounds.

Read-outs that look alike come from different tables or passages of the source.

Holding throughout (assay type): biochemical
One experiment concerns the target T1, human Yes1 enzyme (Homo sapiens, UniProt P07947).
T1 construct: made in house
The experiment can be described thus: Yes1 enzyme inhibitory activity (time-resolved fluorometry, biotinylated peptide phosphorylation). To be noted: read-out: YES_IC50. In a few lines: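 Inhibition was expressed against a compound-free control to give IC50, using TR-FRET read-out (Eu-cryptate anti-pTyr antibody, streptavidin-XL665).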

The next experiment concerns the target T2, human Src enzyme (Homo sapiens, UniProt P12931).
T2 construct: purchased Carna Biosciences, Inc. 08-173
The experiment can be described thus: Src enzyme inhibitory activity (time-resolved fluorometry, biotinylated peptide phosphorylation). To be noted: read-out: SRC_IC50. In outline: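 Compounds were tested for blocking tyrosine phosphorylation of a biotinylated peptide substrate by recombinant human Src. Phosphorylated product was quantified by time-resolved fluorometry using europium cryptate and XL665 conjugates, and IC50 was calculated against the compound-free control.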

In another experiment the target is T3, human Lck enzyme (Homo sapiens, UniProt P06239).
T3 construct: purchased Carna Biosciences, Inc. 08-170
T3 sequence (P06239 whole entry): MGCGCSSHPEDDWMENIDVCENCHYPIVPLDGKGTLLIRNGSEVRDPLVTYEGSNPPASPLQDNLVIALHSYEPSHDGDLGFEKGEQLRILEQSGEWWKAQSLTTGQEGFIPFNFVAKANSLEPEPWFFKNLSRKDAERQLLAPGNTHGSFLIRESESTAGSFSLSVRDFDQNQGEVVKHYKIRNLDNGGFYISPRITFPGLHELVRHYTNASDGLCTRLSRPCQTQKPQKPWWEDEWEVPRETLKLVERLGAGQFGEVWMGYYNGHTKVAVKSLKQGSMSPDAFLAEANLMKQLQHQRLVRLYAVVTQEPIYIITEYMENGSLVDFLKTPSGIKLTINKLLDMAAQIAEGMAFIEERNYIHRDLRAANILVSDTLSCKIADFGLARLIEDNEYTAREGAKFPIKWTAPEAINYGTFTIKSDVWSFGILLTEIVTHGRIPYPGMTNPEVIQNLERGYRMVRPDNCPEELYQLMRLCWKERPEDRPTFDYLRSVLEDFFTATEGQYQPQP
The experiment can be described thus: Lck enzyme inhibitory activity (time-resolved fluorometry, biotinylated peptide phosphorylation). To be noted: read-out: LCK_IC50. In outline:
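Readout pairs a europium cryptate-labelled anti-phosphotyrosine antibody with XL665-streptavidin, measured by time-resolved fluorescence. IC50 derived from percent inhibition against untreated controls.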

Setting [1] is: biotinylated peptide phosphorylation.

T2 sequence (P12931 whole entry): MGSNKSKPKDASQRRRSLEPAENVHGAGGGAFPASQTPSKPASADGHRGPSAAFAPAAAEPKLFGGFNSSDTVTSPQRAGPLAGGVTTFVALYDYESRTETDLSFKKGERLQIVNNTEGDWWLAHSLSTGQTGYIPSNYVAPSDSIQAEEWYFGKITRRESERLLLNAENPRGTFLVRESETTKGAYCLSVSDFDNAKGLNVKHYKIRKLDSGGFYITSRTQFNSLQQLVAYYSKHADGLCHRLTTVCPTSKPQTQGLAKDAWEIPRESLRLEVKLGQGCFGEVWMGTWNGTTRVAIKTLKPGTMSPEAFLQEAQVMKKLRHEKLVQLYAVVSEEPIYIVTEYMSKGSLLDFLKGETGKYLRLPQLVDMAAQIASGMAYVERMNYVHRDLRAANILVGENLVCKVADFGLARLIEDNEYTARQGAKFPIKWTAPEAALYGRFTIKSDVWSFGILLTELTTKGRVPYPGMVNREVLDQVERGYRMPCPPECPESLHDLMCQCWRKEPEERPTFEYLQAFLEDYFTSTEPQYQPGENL
T1 sequence (P07947 whole entry): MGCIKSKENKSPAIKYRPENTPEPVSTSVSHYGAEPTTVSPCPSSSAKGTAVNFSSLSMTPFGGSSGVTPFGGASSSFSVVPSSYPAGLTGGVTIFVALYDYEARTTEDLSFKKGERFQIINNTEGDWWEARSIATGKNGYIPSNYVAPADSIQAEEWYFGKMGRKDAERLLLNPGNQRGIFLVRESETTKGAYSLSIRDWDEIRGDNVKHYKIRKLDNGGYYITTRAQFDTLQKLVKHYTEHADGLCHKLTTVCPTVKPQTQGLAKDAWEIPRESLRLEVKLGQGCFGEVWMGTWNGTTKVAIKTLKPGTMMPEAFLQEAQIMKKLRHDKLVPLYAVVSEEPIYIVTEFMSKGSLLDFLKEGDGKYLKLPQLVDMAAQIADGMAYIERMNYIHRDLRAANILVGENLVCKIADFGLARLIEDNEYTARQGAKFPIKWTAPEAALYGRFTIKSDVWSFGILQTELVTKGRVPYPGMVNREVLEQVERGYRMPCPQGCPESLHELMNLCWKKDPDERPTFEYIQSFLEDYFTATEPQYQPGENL

As to `Cc1cc(-n2ncc(C(=O)c3cc4cc(OC[C@H](O)CO)c(Br)cc4[nH]3)c2N)ccc1Oc1ccccc1F` [Example 5-1-237, (R)-(5-amino-1-(4-(2-fluorophenoxy)-3-methylphenyl)-1H-pyrazol-4-yl)(6-bromo-5-(2,3-dihydroxypropoxy)-1H-indol-2-yl)methanone], the IC50 at human Yes1 enzyme is 1.5 nM; at human Src enzyme it was 180 nM; on human Lck enzyme, 36 nM.

As for `Cc1cc2cc(C(=O)c3cnn(-c4ccc(Oc5ccccc5F)cc4C)c3N)[nH]c2cc1C1CCN(S(C)(=O)=O)CC1` [Example 5-1-086, [5-amino-1-[4-(2-fluorophenoxy)-2-methylphenyl]pyrazol-4-yl]-[5-methyl-6-(1-methylsulfonylpiperidin-4-yl)-1H-indol-2-yl] methanone], the IC50 on human Yes1 enzyme came to 1.4 nM; at human Src enzyme, 8.5 nM; at human Lck enzyme, 2.8 nM.

For the compound `Cc1cc(Oc2ccccc2Cl)ncc1-n1ncc(C(=O)c2cc3cc(Cl)c(NS(C)(=O)=O)cc3[nH]2)c1N` [Example 4-2-088, N-[2-[5-amino-1-[6-(2-chlorophenoxy)-4-methylpyridin-3-yl]pyrazole-4-carbonyl]-5-chloro-1H-indol-6-yl]methanesulfonamide], the IC50 on human Yes1 enzyme (setting [1]) came to 2.6 nM; on human Src enzyme (setting [1]) it was 170 nM; on human Lck enzyme (setting [1]), 48 nM.

For `COc1cc2cc(C(=O)c3cnn(-c4cnc(Oc5ccccc5F)cc4C)c3N)[nH]c2cc1NC(C)=O` [Example 4-11-001, N-{2-{5-amino-1-[6-(2-fluorophenoxy)-4-methylpyridin-3-yl]pyrazole-4-carbonyl}-5-methoxy-1H-indol-6-yl}acetamide], the IC50 turned out to be 1.5 nM on human Yes1 enzyme (setting [1]), 33 nM at human Src enzyme (setting [1]) and 5.6 nM on human Lck enzyme (setting [1]).

For the compound `Cc1cc(-n2ncc(C(=O)c3cc4cc(OC5CCN(C(C)C)CC5)c(Cl)cc4[nH]3)c2N)ccc1Oc1ccccc1F` [Example 5-1-196, [5-amino-1-[4-(2-fluorophenoxy)-3-methylphenyl]pyrazol-4-yl]-[6-chloro-5-(1-propan-2-ylpiperidin-4-yl)oxy-1H-indol-2-yl] methanone], the IC50 on human Yes1 enzyme is 1.7 nM; on human Src enzyme, 190 nM; on human Lck enzyme it was 67 nM.

`Cc1cc(Oc2ccccc2F)ccc1-n1ncc(C(=O)c2cc3cc(F)c(NS(=O)(=O)c4cccc(C#N)n4)cc3[nH]2)c1N` [Example 5-1-537, N-[2-[5-amino-1-[4-(2-fluorophenoxy)-2-methylphenyl]pyrazole-4-carbonyl]-5-fluoro-1H-indol-6-yl]-6-cyanopyridine-2-sulfonamide]: the results for the IC50 on human Yes1 enzyme (setting [1]), at human Src enzyme (setting [1]) and at human Lck enzyme (setting [1]) were 3 nM, 320 nM and 57 nM, respectively.

On to `Cc1cc(Oc2c(F)cccc2F)ncc1-n1ncc(C(=O)c2cc3cc(F)c(N4C(=O)N[C@@H](C)C4=O)cc3[nH]2)c1N` [Example 5-1-406, (5S)-3-[2-[5-amino-1-[6-(2,6-difluorophenoxy)-4-methylpyridin-3-yl]pyrazole-4-carbonyl]-5-fluoro-1H-indol-6-yl]-5-methylimidazolidine-2,4-dione], for which the results for the IC50 on human Yes1 enzyme (setting [1]), on human Src enzyme (setting [1]) and on human Lck enzyme (setting [1]) were 2.2 nM, 75 nM and 3.1 nM, respectively.

On to `Cc1cc(-n2ncc(C(=O)c3cc4cc(OC5CCN(C(C)C)CC5)c(C5CCOCC5)cc4[nH]3)c2N)ccc1Oc1ccccc1F` [Example 5-1-247, (5-amino-1-(4-(2-fluorophenoxy)-3-methylphenyl)-1H-pyrazol-4-yl)(5-((1-isopropylpiperidin-4-yl)oxy)-6-(tetrahydro-2H-pyran-4-yl)-1H-indol-2-yl)methanone], for which the values for the IC50 on human Yes1 enzyme, on human Src enzyme and on human Lck enzyme were 2.1 nM, 120 nM and 34 nM, respectively.

On to `Cc1cc2cc(C(=O)c3cnn(-c4cnc(Oc5ccccc5F)cc4C)c3N)[nH]c2cc1NS(=O)(=O)c1cccc(Cl)n1` [Example 5-1-508, N-[2-[5-amino-1-[6-(2-fluorophenoxy)-4-methylpyridin-3-yl]pyrazole-4-carbonyl]-5-methyl-1H-indol-6-yl]-6-chloropyridine-2-sulfonamide], for which the IC50 was 4 nM at human Yes1 enzyme (setting [1]), 920 nM on human Src enzyme (setting [1]) and 140 nM on human Lck enzyme (setting [1]).

Consider `Cc1cc(Oc2ccccc2F)cc(F)c1-n1ncc(C(=O)c2cc3cc(OCC(F)F)c(N4CCCC4=O)cc3[nH]2)c1N` [Example 4-21-004, 1-[2-[5-amino-1-[2-fluoro-4-(2-fluorophenoxy)-6-methylphenyl]pyrazole-4-carbonyl]-5-(2,2-difluoroethoxy)-1H-indol-6-yl]pyrrolidin-2-one], for which the results for the IC50 at human Yes1 enzyme (setting [1]), on human Src enzyme (setting [1]) and at human Lck enzyme (setting [1]) were 1 nM, 9.2 nM and 3 nM, respectively.

Regarding `Cc1cc(Oc2ccccc2F)ccc1-n1ncc(C(=O)c2cc3cc(OC(F)F)c(NS(=O)(=O)CCC(F)F)cc3[nH]2)c1N` [Example 4-24-004, N-[2-[5-amino-1-[4-(2-fluorophenoxy)-2-methylphenyl]pyrazole-4-carbonyl]-5-(difluoromethoxy)-1H-indol-6-yl]-3,3-difluoropropane-1-sulfonamide], the IC50 at human Yes1 enzyme (setting [1]) was found to be 3.1 nM; at human Src enzyme (setting [1]) it was 41 nM; on human Lck enzyme (setting [1]) it was 17 nM.

As for `Cc1cc(Oc2c(F)cccc2F)ncc1-n1ncc(C(=O)c2cc3cc(OC4CCN(C5CCCC5)CC4)c(-c4ccccc4F)cc3[nH]2)c1N` [Example 5-1-310, [5-amino-1-[6-(2,6-difluorophenoxy)-4-methylpyridin-3-yl]pyrazol-4-yl]-[5-(1-cyclopentylpiperidin-4-yl)oxy-6-(2-fluorophenyl)-1H-indol-2-yl]methanone], the IC50 stood at 3.4 nM at human Yes1 enzyme, 38 nM on human Src enzyme and 22 nM at human Lck enzyme.

On to `Cc1cc(Oc2ccccc2F)ccc1-n1ncc(C(=O)c2cc3cc(F)c(NS(=O)(=O)C4CC4)cc3[nH]2)c1N` [Example 4-2-040, N-[2-[5-amino-1-[4-(2-fluorophenoxy)-2-methylphenyl]pyrazole-4-carbonyl]-5-fluoro-1H-indol-6-yl]cyclopropanesulfonamide], for which the IC50 on human Yes1 enzyme (setting [1]) was determined as 2.2 nM; at human Src enzyme (setting [1]), 42 nM; on human Lck enzyme (setting [1]), 24 nM.

Regarding `Cc1cc(Oc2ccccc2)cc(F)c1-n1ncc(C(=O)c2cc3cc(F)c(NS(=O)(=O)C4CC4)cc3[nH]2)c1N` [Example 4-7-014, N-[2-[5-amino-1-(2-fluoro-6-methyl-4-phenoxyphenyl)pyrazole-4-carbonyl]-5-fluoro-1H-indol-6-yl]cyclopropanesulfonamide], the figures for the IC50 on human Yes1 enzyme (setting [1]), at human Src enzyme (setting [1]) and on human Lck enzyme (setting [1]) were 4.9 nM, 130 nM and 73 nM, respectively.

As for `COc1ccc(Cl)c(S(=O)(=O)Nc2cc3[nH]c(C(=O)c4cnn(-c5cnc(Oc6c(F)cccc6F)cc5C)c4N)cc3cc2OCC(F)F)c1` [Example 5-1-301, N-[2-[5-amino-1-[6-(2,6-difluorophenoxy)-4-methylpyridin-3-yl]pyrazole-4-carbonyl]-5-(2,2-difluoroethoxy)-1H-indol-6-yl]-2-chloro-5-methoxybenzenesulfonamide], the IC50 turned out to be 6.5 nM at human Yes1 enzyme, 610 nM at human Src enzyme and 170 nM on human Lck enzyme.

Take `Cc1cc(Oc2ccccc2F)ccc1-n1ncc(C(=O)c2cc3cc(OCC(F)F)c(NC4CN(S(C)(=O)=O)C4)cc3[nH]2)c1N` [Example 4-23-018, [5-amino-1-[4-(2-fluorophenoxy)-2-methylphenyl]pyrazol-4-yl]-[5-(2,2-difluoroethoxy)-6-[(1-methylsulfonylazetidin-3-yl)amino]-1H-indol-2-yl]methanone]: the IC50 at human Yes1 enzyme (setting [1]) came to 1.4 nM; on human Src enzyme (setting [1]), 18 nM; at human Lck enzyme (setting [1]), 6.5 nM.

For the compound `Cc1cc(Oc2cc(F)cc(F)c2)ncc1-n1ncc(C(=O)c2cc3cc(F)c(NS(=O)(=O)CCCF)cc3[nH]2)c1N` [Example 4-2-028, N-[2-[5-amino-1-[6-(3,5-difluorophenoxy)-4-methylpyridin-3-yl]pyrazole-4-carbonyl]-5-fluoro-1H-indol-6-yl]-3-fluoropropane-1-sulfonamide], the IC50 on human Yes1 enzyme (setting [1]) was determined as 15 nM; on human Src enzyme (setting [1]), 340 nM; on human Lck enzyme (setting [1]), 120 nM.

`Cc1cc(Oc2cccc(Cl)c2)ncc1-n1ncc(C(=O)c2cc3cc(F)c(NS(=O)(=O)CCCF)cc3[nH]2)c1N` [Example 4-2-026, N-[2-[5-amino-1-[6-(3-chlorophenoxy)-4-methylpyridin-3-yl]pyrazole-4-carbonyl]-5-fluoro-1H-indol-6-yl]-3-fluoropropane-1-sulfonamide]: the results for the IC50 on human Yes1 enzyme (setting [1]), at human Src enzyme (setting [1]) and on human Lck enzyme (setting [1]) were 3.6 nM, 120 nM and 37 nM, respectively.

For `Cc1cc(Oc2c(F)cccc2F)ncc1-n1ncc(C(=O)c2cc3cc(OC(F)F)c(N4CCCS4(=O)=O)cc3[nH]2)c1N` [Example 4-25-005, [5-amino-1-[6-(2,6-difluorophenoxy)-4-methylpyridin-3-yl]pyrazol-4-yl]-[5-(difluoromethoxy)-6-(1,1-dioxo-1,2-thiazolidin-2-yl)-1H-indol-2-yl]methanone], the results for the IC50 at human Yes1 enzyme (setting [1]), at human Src enzyme (setting [1]) and on human Lck enzyme (setting [1]) were 3.9 nM, 53 nM and 11 nM, respectively.

With `Cc1cc(Oc2ccccc2F)ccc1-n1ncc(C(=O)c2cc3cc(F)c(NS(=O)(=O)NC4CCOCC4)cc3[nH]2)c1N` [Example 4-5-003, [5-amino-1-[4-(2-fluorophenoxy)-2-methylphenyl]pyrazol-4-yl]-[5-fluoro-6-(oxan-4-ylsulfamoylamino)-1H-indol-2-yl]methanone], the IC50 turned out to be 0.67 nM on human Yes1 enzyme (setting [1]), 29 nM at human Src enzyme (setting [1]) and 11 nM at human Lck enzyme (setting [1]).
